Assay results from patent US8946302B2, “Selective sigma-1 receptor ligands” (Wisconsin Alumni Research Foundation, priority 2008, dated 2015).
Values joined by “and” are separate entries in the source; they are usually repeats but may differ in a detail not shown here. Equal entries are not always repeated. Where two headings read alike, the source gives them in different places. Marks after values point to notes of the source that are not given here.

Key:
[1] = biological target: T1, sigma-1 receptor (Cavia porcellus, UniProt Q60492); assay: Sigma-1 competitive binding, (+)-[3H]pentazocine, guinea pig liver membranes (Example 6); parameters: from tissue; host or cells: guinea pig liver membranes;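 note: compounds tested over serial concentrations, 45 min incubation at 30 °C with membrane preparations, read-out is displacement of bound radioligand from the receptor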
Description: (§2) Minced frozen rat livers or guinea pig livers (65 g) were thawed in 100 mL homogenization buffer (10 mM phosphate buffer pH 7.4 containing 0.32M sucrose, 1 M MgSO4, 0.5 M EGTA, 1 mM phenylmethylsulphonyl fluoride (PMSF), 10 μg/mlleupeptin, 1 μg/ml pepstatin A, 10 μg/ml p-toluenesulfonyl-L-arginine methyl ester (TAME) and then homogenized on ice with a Brinkman polytron homogenizer (setting 6, 4 bursts of 10 second each) followed by a glass homogenizer (Teflon pestle by 6 slow passes at 3,000 rpm). The homogenized tissues were then centrifuged at 17,000 g for 10 minutes. The supernatants were re-centrifuged at 100,000 g for 1 hour. The microsomal pellets were resuspended in homogenization buffer, snap frozen with dry ice-ethanol, and stored at −80° C. at a final protein concentration of 20 mg/mL.
(§3) Assays for sigma-1 were performed using 10 nM (+)-[^3H]pentazocine in guinea pig liver homogenates (25 μg/well) incubated at 30° C. for 1 hour with several concentrations of competing ligands. After incubation, membranes were harvested on a 0.5% PEI-treated Whatman GF/B filters using a Brandel Cell Harvester. (+)-[^3H]pentazocine binding was determined by liquid scintillation counting. […] Serial concentrations of the compounds evaluated were added to the reactions for 45 minutes at 30° C. and the samples vacuum filtered through 0.5% polyethyleneimine (PEI) treated Whatman GF/B as described above to measure displacement of the radioligands from the sigma receptor subtypes.

[2] = biological target: T2, sigma-2 receptor (Rattus norvegicus, UniProt Q5U3Y7); assay: Sigma-2 competitive binding, [3H]-DTG with (+)-pentazocine, rat liver membranes (Example 6); parameters: from tissue; host or cells: rat liver membranes; details: rat liver membranes, n = 3; read-out: Sigma2 KD values
T2 sequence (Q5U3Y7 1-176): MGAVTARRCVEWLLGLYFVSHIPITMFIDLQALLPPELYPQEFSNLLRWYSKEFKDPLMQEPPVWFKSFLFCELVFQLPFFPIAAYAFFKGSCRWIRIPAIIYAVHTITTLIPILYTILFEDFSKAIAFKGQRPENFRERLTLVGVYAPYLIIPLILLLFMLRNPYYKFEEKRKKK
Description: as §2, §3

[3] = test system: MB-MDA-231; assay: Cytotoxicity assay MB-MDA-231; assay type: cell-based; details: Homo sapiens, HU Breast, read-out: IC50 (SE) growth inhibition
Description: (§1) Multi-plex cytotoxicity assays were performed by the Keck-UWCCC Small Molecule Screening Facility (Madison, Wis.). Specific methodology can be found online at http://hts.wisc.edu/Resources.htm#mpa.

[4] = biological target: T2, sigma-2 receptor; parameters: from tissue; host or cells: rat liver membranes; details: from Fontanilla et al. Biochemistry 2008; cited from earlier work
[5] = test system: HCT-45; assay: Cytotoxicity assay HCT-45; assay type: cell-based; details: Homo sapiens, HU Colorectal, read-out: IC50 (SE) growth inhibition
Description: as §1

[6] = test system: NCI-H460; assay: Cytotoxicity assay NCI-H460; assay type: cell-based; details: Homo sapiens, HU lung, read-out: IC50 (SE) growth inhibition
Description: as §1

[7] = biological target: T1, sigma-1 receptor; parameters: from tissue; host or cells: guinea pig liver membranes; details: from Fontanilla et al. Biochemistry 2008; cited from earlier work
[8] = test system: HT-29; assay: Cytotoxicity assay HT-29; assay type: cell-based; details: Homo sapiens, HU Colorectal, read-out: IC50 (SE) growth inhibition
Description: as §1

[9] = test system: SF268; assay: Cytotoxicity assay SF268; assay type: cell-based; details: Homo sapiens, SF-268, HU CNS, read-out: IC50 (SE) growth inhibition
Description: as §1

[10] = test system: MCP10A; assay: Cytotoxicity assay MCP10A; assay type: cell-based; details: Homo sapiens, HU Breast, read-out: IC50 (SE) growth inhibition
Description: as §1

[11] = test system: Du145; assay: Cytotoxicity assay Du145; assay type: cell-based; details: Homo sapiens, DU-145, HU Prostate, read-out: IC50 (SE) growth inhibition
Description: as §1

[12] = test system: HI299; assay: Cytotoxicity assay HI299; assay type: cell-based; details: Homo sapiens, HU Lung, read-out: IC50 (SE) growth inhibition
Description: as §1

[13] = test system: MCF7; assay: Cytotoxicity assay MCF7; assay type: cell-based; details: Homo sapiens, HU Breast, read-out: IC50 (SE) growth inhibition
Description: as §1

[14] = test system: A549; assay: Cytotoxicity assay A549; assay type: cell-based; details: Homo sapiens, HU lung, read-out: IC50 (SE) growth inhibition
Description: as §1

[15] = test system: SKOV-3; assay: Cytotoxicity assay SKOV-3; assay type: cell-based; details: Homo sapiens, SK-OV-3, HU Ovarian, read-out: IC50 (SE) growth inhibition
Description: as §1

[16] = biological target: sigma-1 receptor (Homo sapiens, UniProt Q99720); details: literature value; cited from earlier work
[17] = biological target: T3, sigma-1 receptor (Rattus norvegicus, UniProt Q9R0C9); assay: Protection of [125I]-IACoc photolabeling in rat liver membranes; assay type: binding; details: even at 50 and 100 μM
T3 construct: from tissue; host or cells: rat liver membranes
Description: Rat liver membranes (100 μg/lane) were suspended in the presence or absence of the protecting drugs. […] Percent band intensities are shown compared to controls performed in the absence of protecting ligand (−).

[18] = biological target: sigma-2 receptor (Homo sapiens, UniProt Q5BJF2); details: literature value; cited from earlier work
[19] = biological target: T4, purified sigma-1 receptor (Cavia porcellus, UniProt Q60492); assay: Competitive displacement of [3H]-(+)-pentazocine at the pure sigma-1 receptor; assay type: binding, guinea pig; details: read-out: Ki Pure σ-1R
T4 construct: made in house; host or cells: E. coli BL21 DE3
Description: A guinea pig sigma-1 receptor was purified as previously described (Ramachandran et al., Protein Expr. Purif., 2007. 51(2): 283-92). The pMal P2X plasmid (New England Biolabs) encoding the guinea pig sigma-1 receptor on the C-terminus of the E. coli Maltose Binding Protein was used for purification. The sigma-1 receptor on its C-terminus carried a hexa-histadine epitope tag. Protein was expressed in the E. coli strain BL21 DE3 (Novagen) with 0.6 mM IPTG. The E. coli pellet was sonicated and centrifuged at 100,000 g for 1 hour to separate the particulate and soluble fractions. The particulate fraction was extracted with Triton X-100, centrifuged and the extract was loaded onto an amylose resin (New England Biolabs, E-802). After washing the resin with buffer containing 0.5% Triton X-100, the MBP-sigma-1 receptor fusion protein was eluted with buffer containing 10 mM maltose.
The MBP-sigma-1-receptor fusion protein was cleaved with Factor Xa protease (Novagen) at room temperature for 24-48 hours and the cleavage was monitored with SDS-polyacrylamide gel electrophoresis. The sigma-1 receptor from the Factor Xa cleavage was purified with a HIS-Select HC Nickel affinity gel (Sigma-Aldrich P6611) in a batch format. The resin was washed with buffer containing 0.5% Triton X-100 detergent and the beads were separated by a brief centrifugation at 4000 rpm in a microcentrifuge. After washing to remove MBP, the pure sigma-1 receptor was eluted in buffer containing 250 mM imidazole.
To remove the undigested MBP-sigma-1 receptor fusion protein that is carried over in the Ni^2+ purification, the eluate from the Ni^2+ purification was incubated with Anti-MBP antibody conjugated to agarose (Vector Laboratories, Burlingame, Calif.) at 4° C. for 18-24 hours. The beads were separated by centrifugation and the supernatant contained the pure sigma-1 receptor.
Competition ligand binding to the pure sigma-1 receptor was performed as previously described. […] After incubation at 30° C. for 60 minutes, the reaction was terminated by rapid filtration through glass fiber filters (Whatman GF/B), using a Brandel cell harvester (Brandel, Gaithersburg, Md.). The glass fiber filters were pre-soaked in 0.5% polyethyleneimine (PEI) for at least 1 hour at room temperature (˜23° C.). Filters were washed 4 times with 4 mL of ice-cold 50 mM Tris-C1, pH 8.0. Radioactivity was quantified by liquid scintillation counting using a Packard model 1600 CA scintillation counter.

[20] = biological target: T5, Kv 1.4 K+ channel (Rattus norvegicus, UniProt P15385); assay: Whole cell patch clamp of Kv 1.4 K+ channel co-expressed with sigma-1 receptor in HEK-293 cells; assay type: cell-based; details: for average inhibition of Kv 1.4 K+ channel: concentrations up to 300 μM, HEK-293
T5 construct: expressed in transfected cells; host or cells: HEK-293, transient, pIRES KvS1R plus pEGFP
Description: After transfection (36-48 hours), whole cell K^+ currents were recorded from GFP positive HEK cells under voltage clamp using standard patch clamp techniques, using patch pipettes filled with (in mM) 120 KCl, 10 NaCl, 10 EGTA, 2 MgCl2, 2-4 MgATP, 0.3 NaGTP, 10 HEPES, pH 7.3.
The external solution was composed of (in mM) 130 NaCl, 4 KCl, 2 CaCl2, 1 MgCl2, 10 HEPES, pH 7.4 at room temperature (22-24° C.). Patch pipettes with resistances from 1-3 MΩ were fabricated from borosilicate glass (Garner Glass Co., CA). K^+ channels were activated by voltage step from −120 mV to 20 mV for 250 ms. Axopatch 200B, patch clamp amplifier interfaced to a PC running PCLAMP 7 (Axon Instruments) was used for data acquisition. Drugs were applied by a gravity feed system at a flow rate of 1-3 mL/minute. Series resistance compensation was used for cells with series resistance values higher than 10 MΩ. A 80-90% series resistance compensation was achieved on such cells.
K^+ currents were recorded using whole cell patch clamp technique.

[21] = biological target: T1, sigma-1 receptor; assay: Competition assay against (+)-[3H]-pentazocine, trace amines; assay type: binding; parameters: from tissue; details: (+)-[3H]-pentazocine 10 nM; read-out: Sigma-1R KD
Description: Competitive binding assays were performed as previously described (18) with the exception of testing new ligands shown in Table 4.

[22] = biological target: T6, σ-1 Sites (Cavia porcellus, UniProt Q60492); assay: σ-1 sites radioligand binding, guinea pig liver membranes (Table 2)
T6 construct: from tissue
Description: as §3

[23] = biological target: T7, σ-2 Sites (Rattus norvegicus, UniProt Q5U3Y7); assay: σ-2 sites radioligand binding, rat liver membranes (Table 2)
T7 construct: from tissue
T7 sequence (Q5U3Y7 1-176): T2 sequence (Q5U3Y7 1-176)
Description: as §3

[24] = test system: WT and sigma-1 receptor knockout mice; assay: Open-field hypermobility assay in WT and sigma-1 receptor KO mice; assay type: in vivo, mouse; details: WT and KO mice, 3 mg/kg i.p.
Description: All mice were maintained on a normal light/dark cycle and handled in accordance with Animal Care and Use Guidelines of the University of Wisconsin, Madison. […] Mice were first acclimatized to the experimental room for one hour. WT and KO mice were injected with the monoamine oxidase inhibitor, pargyline (75 mg/kg, i.p.) two hours prior to DMT or vehicle injection(28). […] Each condition represents 8 to 14 mice (n=8-14). […] A computer program was used to quantitate movement and after each experiment, 70% ethanol was used to remove odors from the open-field.

T4 sequence (Q60492 whole entry): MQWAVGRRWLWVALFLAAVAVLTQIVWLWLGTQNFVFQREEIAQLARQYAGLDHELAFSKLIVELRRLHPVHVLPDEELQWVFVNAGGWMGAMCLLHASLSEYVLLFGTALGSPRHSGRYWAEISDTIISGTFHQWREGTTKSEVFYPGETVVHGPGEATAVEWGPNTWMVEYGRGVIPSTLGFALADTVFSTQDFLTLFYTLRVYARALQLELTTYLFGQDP
T1 sequence (Q60492 whole entry): as above
T5 sequence (Q9R0C9 whole entry partner): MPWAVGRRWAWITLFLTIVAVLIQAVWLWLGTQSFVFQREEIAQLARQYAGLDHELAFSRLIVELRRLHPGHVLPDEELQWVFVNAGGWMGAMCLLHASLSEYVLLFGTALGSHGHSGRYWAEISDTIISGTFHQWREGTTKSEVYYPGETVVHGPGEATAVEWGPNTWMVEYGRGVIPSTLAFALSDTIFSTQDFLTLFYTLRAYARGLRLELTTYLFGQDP
T5 sequence (P15385 whole entry): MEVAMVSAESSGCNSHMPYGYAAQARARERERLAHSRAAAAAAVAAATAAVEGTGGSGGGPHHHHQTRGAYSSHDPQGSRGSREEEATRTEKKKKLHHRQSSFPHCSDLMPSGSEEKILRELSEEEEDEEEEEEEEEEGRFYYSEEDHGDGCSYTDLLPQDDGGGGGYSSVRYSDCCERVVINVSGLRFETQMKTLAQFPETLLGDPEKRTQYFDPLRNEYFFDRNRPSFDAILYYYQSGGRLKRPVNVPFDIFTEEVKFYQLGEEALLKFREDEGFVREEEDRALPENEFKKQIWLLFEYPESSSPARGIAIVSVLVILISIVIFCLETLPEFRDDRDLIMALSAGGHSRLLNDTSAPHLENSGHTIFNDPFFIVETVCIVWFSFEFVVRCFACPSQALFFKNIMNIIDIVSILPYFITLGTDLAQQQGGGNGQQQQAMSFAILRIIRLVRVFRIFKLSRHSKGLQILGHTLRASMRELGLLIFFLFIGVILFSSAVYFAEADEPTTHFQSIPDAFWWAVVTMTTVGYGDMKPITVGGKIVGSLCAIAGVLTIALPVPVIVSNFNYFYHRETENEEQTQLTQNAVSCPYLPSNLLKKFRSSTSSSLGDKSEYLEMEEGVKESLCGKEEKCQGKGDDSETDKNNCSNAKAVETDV
T6 sequence (Q60492 whole entry): as the sequence (Q60492 whole entry) above
Sequence of sigma-1 receptor (Homo sapiens, UniProt Q99720) (Q99720 whole entry, species assumed): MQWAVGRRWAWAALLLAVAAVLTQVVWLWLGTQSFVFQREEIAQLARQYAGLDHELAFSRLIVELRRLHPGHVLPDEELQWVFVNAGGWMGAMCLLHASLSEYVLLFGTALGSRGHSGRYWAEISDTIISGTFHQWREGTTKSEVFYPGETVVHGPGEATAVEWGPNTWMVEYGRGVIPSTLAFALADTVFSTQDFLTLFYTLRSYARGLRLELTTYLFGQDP
T3 sequence (Q9R0C9 whole entry): as the sequence (Q9R0C9 whole entry partner) above
Sequence of sigma-2 receptor (Homo sapiens, UniProt Q5BJF2) (Q5BJF2 whole entry, species assumed): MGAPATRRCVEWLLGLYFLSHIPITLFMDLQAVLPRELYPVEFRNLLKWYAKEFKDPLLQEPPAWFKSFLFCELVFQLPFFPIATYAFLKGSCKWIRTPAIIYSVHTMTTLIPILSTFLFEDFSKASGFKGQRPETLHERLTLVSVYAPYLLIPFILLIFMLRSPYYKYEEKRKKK

CCCNCCc1ccc([N+](=O)[O-])cc1 [Compound 7, N-propyl-N-3-(4-nitophenyl)-ethylamine]
Ratio (σ2/σ1) [1]: 23.8 | Kd [2]: 53.6 µM | melting point: 142 to 144 °C

CCCN(CCCc1ccc(F)cc1)CCc1ccc(N)cc1 [Compound 20, N-propyl-N-(4-aminophenyl-ethyl)-3-(4-fluorophenyl)propylamine]
IC50 [3]: 86.1 µM | Kd [4]: 0.12 µM | IC50 [5]: > 100 µM | IC50 [6]: 44.8 µM | Kd [7]: 2.59 µM | Ratio (σ2/σ1) [7]: 0.046^c | IC50 [8]: > 100 µM | IC50 [9]: > 100 µM | IC50 [10]: > 100 µM | IC50 [11]: > 100 µM | IC50 [12]: > 100 µM | IC50 [13]: 41.3 µM | IC50 [14]: > 100 µM | IC50 [15]: 20.2 µM

COC(=O)C1C(OC(=O)c2ccc(N=[N+]=[N-])c(I)c2)CC2CCC1N2C (centres unmarked) [[^125I]-IACoc, 3-[^125I]iodo-4-azidococaine]
Kd [16]: 0.000126 µM

CNCCc1c[nH]c2ccccc12 [N-methyltryptamine]
protection of sigma-1 receptor [125I]-IACoc photolabeling [17]: protected minimally

CC1CN(CCCc2ccc(N=[N+]=[N-])c([125I])c2)CC(C)O1 (centres unmarked) [[^125I]IAF, 1-N-(2′,6′-dimethyl-morpholino)-3-(4-azido-3-[^125I]iodo-phenyl)propane]
Kd [18]: 2.78 µM | Kd [16]: 0.194 µM

CCCCN [Butylamine, reference compound]
Ki ([19]; [3H]-(+)-pentazocine 10 nM): 477 ± 67.5 µM | average inhibition of Kv 1.4 K+ channel [20]: 21%

NCCc1ccc(O)cc1 [Tyramine]
Kd [21]: > 30000 µM

CCCCCCCN [Heptylamine]
Ki ([19]; [3H]-(+)-pentazocine 10 nM): 21.4 µM and 21 µM | average inhibition of Kv 1.4 K+ channel [20]: 15%

CCCCNCCCc1ccccc1 [Compound 1a, N-(3-Phenylpropyl)butan-1-amine]
Ki ([19]; [3H]-(+)-pentazocine): 0.205 ± 0.0185 µM | Ki ([22]; guinea pig liver membranes): 0.073 µM | σ-1 selectivity σ-2 Ki/σ-1 Ki ([22]; σ-2 rat liver / σ-1 guinea pig liver membranes): 2 | Ki [23]: 0.153 µM | EC50 ([20]; HEK-293 co-expressing sigma-1 receptor, read-out: EC50 for inhibition of the Kv 1.4 K+ channel): 50 µM

CN[C@@H](C)Cc1ccccc1 [methamphetamine]
hypermobility [24]: induced hypermobility in both WT and KO mice
